From patent US7211581B2, “Substituted 2-(diaza-bicyclo-alkyl)-pyrimidone derivatives” (Sanofi-Aventis, priority 2003, dated 2007) come the findings set out here.

One data set addresses GSK3β (Homo sapiens, UniProt P49841). The data set can be described thus: Inhibitory activity against GSK3β (33P-ATP phosphorylation of prephosphorylated GS1 peptide, two protocols). Type of data set: biochemical. As for the experimental part:
Inhibitory Activity of the Medicament of the Present Invention Against GSK3β Two different protocols can be used. In a first protocol: 7.5 μM of prephosphorylated GS1 peptide and 10 μM ATP (containing 300,000 cpm of ^33P-ATP) were incubated in 25 mM Tris-HCl, pH 7.5, 0.6 mM DTT, 6 mM MgCl2, 0.6 mM EGTA, 0.05 mg/ml BSA buffer for 1 hour at room temperature in the presence of GSK3beta (total reaction volume: 100 microliters). In a second protocol: 4.1 μM of prephosphorylated GS 1 peptide and 42 μM ATP (containing 260,000 cpm ^33P-ATP) were incubated in 80 mM Mes-NaOH, pH 6.5, 1 mM Mg acetate, 0.5 mM EGTA, 5 mM 2-mercaptoethanol, 0.02% Tween 20, 10% glycerol buffer for 2 hours at room temperature in the presence of GSK3beta. Inhibitors were solubilised in DMSO (final solvent concentration in the reaction medium, 1%). The reaction was stopped with 100 microliters of a solution made of 25 g polyphosphoric acid (85% P2O5), 126 ml 85% H3PO4, H2O to 500 ml and then diluted to 1:100 before use. An aliquot of the reaction mixture was then transferred to Whatman P81 cation exchange filters and rinsed with the solution described above. Incorporated 33P radioactivity was determined by liquid scintillation spectrometry. The phosphorylated GS-1 peptide had the following sequence: • NH2-[…](P)EDEE-COOH.

Where a name gives a salt, the structure may show the parent alone.

One may read the melting point as the temperature, or range, at which the solid turns liquid. In general, IC50 refers to the point on the concentration scale where inhibition reaches its midpoint. Lower therefore signals higher potency.

Chain of GSK3β (P49841 whole entry, species assumed): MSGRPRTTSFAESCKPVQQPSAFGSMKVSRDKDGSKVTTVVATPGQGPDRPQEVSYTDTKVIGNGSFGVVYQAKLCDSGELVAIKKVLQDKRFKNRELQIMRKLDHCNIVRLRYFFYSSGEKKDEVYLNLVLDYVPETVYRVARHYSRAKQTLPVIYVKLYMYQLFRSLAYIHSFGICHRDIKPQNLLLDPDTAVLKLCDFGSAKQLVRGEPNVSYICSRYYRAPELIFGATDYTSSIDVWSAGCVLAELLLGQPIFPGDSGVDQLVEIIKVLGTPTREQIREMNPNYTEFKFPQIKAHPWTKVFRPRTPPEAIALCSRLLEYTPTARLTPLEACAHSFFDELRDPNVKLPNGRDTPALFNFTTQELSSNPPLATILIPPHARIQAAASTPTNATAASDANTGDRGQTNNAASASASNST

Compound `Cn1c(N2CC3C[C@H]2CN3)nc(-c2ccncn2)cc1=O` (as salt: hydrochloride) displayed a melting point of 275 to 277 °C. Same read-out and setting: next, `Cn1c(N2CC3C[C@H]2CN3)nc(-c2ccncc2)cc1=O` (as salt: hydrochloride): 240 to 242 °C. The compound `Cc1ccc(N2C[C@@H]3CC2CN3c2nc(-c3ccncc3)cc(=O)n2C)cc1` [4′, (1S)-3-Methyl-6-pyridin-4-yl-2-(5-p-tolyl-2,5-diaza-bicyclo[2.2.1]hept-2-yl)-3H-pyrimidin-4-one] had a melting point of 123 to 125 °C. This compound returned an IC50 against GSK3β of 4 nM.

Consider `Cn1c(N2CC3C[C@H]2CN3C(=O)c2ccc(Br)cc2)nc(-c2ccncn2)cc1=O` [Compound 24, (1S)-2-(5-(4-Bromo-benzoyl)-2,5-diaza-bicyclo[2.2.1]hept-2-yl)-1-methyl-1H-[4,4′]bipyrimidinyl-6-one], for which the melting point fell in the range of 142 to 144 °C. The compound also yielded an IC50 at GSK3β of 6 nM.
